Measured values reported in patent publication US20070172470A1, “Phosphatase regulation of nucleic acid transcription” (The Regents of the University of California, priority 2003, published 2007).
Where two headings read alike, the source gives them in different places.

Molecular target: SCP1 (Homo sapiens, UniProt Q9GZU7)
Experiment: PNθP phosphatase assay in the presence of phosphatase inhibitors
Type: biochemical

Sequence of SCP1 (Q9GZU7 other isoform, or with tags, fused parts or gaps): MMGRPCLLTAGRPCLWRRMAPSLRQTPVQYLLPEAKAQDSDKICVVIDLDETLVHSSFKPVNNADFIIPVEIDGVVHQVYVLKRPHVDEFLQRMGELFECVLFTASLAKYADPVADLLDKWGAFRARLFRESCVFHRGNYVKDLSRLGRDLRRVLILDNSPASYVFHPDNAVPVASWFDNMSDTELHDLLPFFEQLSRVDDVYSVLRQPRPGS

Compound | SCP1 phosphatase activity in the presence of phosphatase inhibitor | SCP1 phosphatase activity in the presence of phosphatase inhibitor (GST-SCP1 214 (40 pmol), 20 mM PNθP, 1-10 μM inhibitor)
microcystin | resistant | 
C=C1[C@@H](O)[C@@H]2O[C@]3(CC[C@H](/C=C/[C@@H](C)[C@@H]4CC(C)=C[C@@]5(O[C@H](C[C@@](C)(O)C(=O)O)CC[C@H]5O)O4)O3)CC[C@H]2O[C@@H]1[C@@H](O)C[C@H](C)[C@H]1O[C@@]2(CCCCO2)CC[C@H]1C [okadaic acid] |  | resistant
